{
  "source": "patent US9353082B2",
  "about": "“Pharmaceutical compounds” (BIAL—PORTELA & CA, S.A., priority 2008, dated 2016)",
  "target": "T1, FAAH (Rattus norvegicus, UniProt P97612)",
  "T1 construct": "Frozen brains (without cerebellum) from Wistar rats were used; from tissue; host or cells: Wistar rat brain (without cerebellum), washed membrane pellets",
  "T1 sequence (P97612 1-579)": "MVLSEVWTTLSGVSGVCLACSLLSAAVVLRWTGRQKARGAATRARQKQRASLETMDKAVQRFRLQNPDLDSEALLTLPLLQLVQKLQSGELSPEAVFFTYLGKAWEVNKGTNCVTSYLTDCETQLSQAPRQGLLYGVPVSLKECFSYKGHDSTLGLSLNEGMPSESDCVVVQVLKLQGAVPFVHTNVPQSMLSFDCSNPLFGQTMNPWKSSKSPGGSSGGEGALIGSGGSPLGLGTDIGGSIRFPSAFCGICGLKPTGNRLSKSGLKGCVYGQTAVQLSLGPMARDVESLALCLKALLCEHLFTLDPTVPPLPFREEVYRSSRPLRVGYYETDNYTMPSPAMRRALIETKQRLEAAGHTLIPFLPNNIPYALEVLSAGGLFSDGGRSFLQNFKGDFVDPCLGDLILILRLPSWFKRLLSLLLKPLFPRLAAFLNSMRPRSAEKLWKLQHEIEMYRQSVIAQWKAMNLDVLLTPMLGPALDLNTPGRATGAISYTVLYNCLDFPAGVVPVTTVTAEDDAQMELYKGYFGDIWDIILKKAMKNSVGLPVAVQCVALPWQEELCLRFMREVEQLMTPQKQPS",
  "assay": "In vitro FAAH activity in rat brain membranes, 3H-AEA substrate, % of control",
  "type": "biochemical, Wistar rats",
  "settings": "low value = strong inhibitor",
  "in_short": "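Wistar rat brain membranes (5 μg protein) preincubated 15 min at 37 °C with compound at 10 μM or 0.1 μM (0.1% DMSO), then 2 μM AEA including 3H-AEA with 0.1% BSA, Tris pH 7.6, 10 min. 3H-ethanolamine counted after charcoal stop; % of no-compound control after blank subtraction.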",
  "data": [
    {"smiles": "COc1cccc(-c2cn(C(=O)N3CCCc4ccccc43)cn2)c1", "note": "[Compound 39, (3,4-dihydroquinolin-1(2H)-yl)(4-(3-methoxyphenyl)-1H-imidazol-1-yl)methanone]", "values": [
      {"measurement": "FAAH 10 uM", "setting": "10 uM compound, rat brain membranes, 100 = no measurable inhibition", "result": "16 % of control"},
      {"measurement": "In Vitro FAAH activity, 10 uM", "setting": "10 uM test compound", "result": "16 % of control"}
    ]}
  ]
}
